Patent US11053235B2, “Substituted 1,4-dihydropyrimidines for the treatment of HBV infection or HBV-induced diseases” (Janssen Sciences Ireland Unlimited Company, priority 2018, dated 2021)
Counter-ions that a name gives are not always drawn. Like-named read-outs stand apart in the source and are kept apart here.

Legend:
HBV = assay: Anti-viral assay in HepG2.2.15 cells: HBV inhibitory activity (HBV DNA in culture medium by q-PCR); assay type: cell-based; conditions: Hepatitis B virus, HepG2.2.15, 144 h
Summary of the method: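 HepG2.2.15 cells seeded at 40,000/well in 2% FBS medium, dosed next day for 6 days (medium refreshed once midway); 8-point 3-fold dilutions from 10 uM top. HBV DNA in culture medium extracted and quantified by q-PCR; EC50 calculated from dose-response.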

[1] = Cytotoxicity determination in HepG2.2.15 cells (CCK-8); assay type: cell-based; conditions: human, 6 days treatment, CCK-8, highest concentration 100 uM
Summary of the method: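 HepG2.2.15 cells seeded at 5,000 cells/well in 2% FBS medium and exposed to compounds for 6 days (medium refreshed once), 8 three-fold dilutions from 100 uM. Viability read by CCK-8 after 2.5 h at 37 °C, absorbance 450 nm with 630 nm reference; CC50 calculated.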

[2] = HepG2.2.15 cells, 6 days treatment, HBV DNA in culture medium by q-PCR, highest concentration 10 uM, read-out: EC50

SMILES | EC50 (HBV; [2]) [nM] | CC50 at 6 days [1] [nM] | EC50 (HBV) [nM]
CCOC(=O)C1=C(C2CCN(c3ncc(C(=O)O)c(C)n3)CC2)NC(c2nccs2)=NC1c1ccc(F)c(F)c1Cl (single isomer, unassigned) [II-73-B, 2-(4-(6-(2-Chloro-3,4-difluorophenyl)-5-(ethoxycarbonyl)-2-(thiazol-2-yl)-3,6-dihydropyrimidin-4-yl)piperidin-1-yl)-4-methylpyrimidine-5-carboxylic Acid] | 25 | 5920 | 
CCOC(=O)C1=C(C2CCN(c3ncc(C(=O)O)cn3)CC2)NC(c2nccs2)=NC1c1ccc(F)c(F)c1Cl (single isomer, unassigned) [II-74-B, 2-(4-(6-(2-Chloro-3,4-difluorophenyl)-5-(ethoxycarbonyl)-2-(thiazol-2-yl)-3,6-dihydropyrimidin-4-yl)piperidin-1-yl)pyrimidine-5-carboxylic Acid] | 6.6 | 9310 | 
CCOC(=O)C1=C(C2CCN(c3nncs3)CC2)NC(c2nccs2)=NC1c1ccc(F)c(F)c1Cl (single isomer, unassigned) [II-75-X, Ethyl 6-(1-(1,3,4-thiadiazol-2-yl)piperidin-4-yl)-4-(2-chloro-3,4-difluorophenyl)-2-(thiazol-2-yl)-1,4-dihydropyrimidine-5-carboxylate] | 30 | 9810 | 
CCOC(=O)C1=C(C2CCN(c3cnc(C(=O)O)s3)CC2)NC(c2nccs2)=NC1c1ccc(F)c(F)c1Cl (single isomer, unassigned) [II-76-B, 5-(4-(6-(2-Chloro-3,4-difluorophenyl)-5-(ethoxycarbonyl)-2-(thiazol-2-yl)-3,6-dihydropyrimidin-4-yl)piperidin-1-yl)thiazole-2-carboxylate lithium salt] |  | 6680 | 90
CCOC(=O)C1=C(C2CCN(c3nc(COC)c(C(=O)O)s3)CC2)NC(c2nccs2)=NC1c1ccc(F)c(F)c1Cl (single isomer, unassigned) [II-77-B, 2-(4-(6-(2-Chloro-3,4-difluorophenyl)-5-(ethoxycarbonyl)-2-(thiazol-2-yl)-3,6-dihydropyrimidin-4-yl)piperidin-1-yl)-4-(methoxymethyl)thiazole-5-carboxylic Acid] | 29 | 9740 | 
CCOC(=O)C1=C(C2CCN(c3ncc(C(=O)O)s3)CC2)NC(c2nccs2)=NC1c1ccc(F)c(F)c1Cl (single isomer, unassigned) [II-78-B, 2-(4-(6-(2-Chloro-3,4-difluorophenyl)-5-(ethoxycarbonyl)-2-(thiazol-2-yl)-3,6-dihydropyrimidin-4-yl)piperidin-1-yl)thiazole-5-carboxylic Acid] | < 4.6 | 12100 | 
CCOC(=O)C1=C(C2CCN(c3nc(C(F)(F)F)c(C(=O)O)s3)CC2)NC(c2nccs2)=NC1c1ccc(F)c(F)c1Cl (single isomer, unassigned) [II-79-B, 2-(4-(6-(2-Chloro-3,4-difluorophenyl)-5-(ethoxycarbonyl)-2-(thiazol-2-yl)-3,6-dihydropyrimidin-4-yl)piperidin-1-yl)-4-(trifluoromethyl)thiazole-5-carboxylic Acid] | 13 | 1140 | 
CCOC(=O)C1=C(C2CCN(c3nc(C(=O)O)cs3)CC2)NC(c2nccs2)=NC1c1ccc(F)c(F)c1Cl (single isomer, unassigned) [II-80-B, 2-(4-(6-(2-Chloro-3,4-difluorophenyl)-5-(ethoxycarbonyl)-2-(thiazol-2-yl)-3,6-dihydropyrimidin-4-yl)piperidin-1-yl)thiazole-4-carboxylic Acid] | 45 | 10200 | 
COC(=O)C1=C(C2CCN(c3ncc(C)c(C(=O)O)n3)CC2)NC(c2nccs2)=NC1c1ccc(Br)cc1Cl (single isomer, unassigned) [II-81-B, 2-(4-(6-(4-bromo-2-chlorophenyl)-5-(methoxycarbonyl)-2-(thiazol-2-yl)-3,6-dihydropyrimidin-4-yl)piperidin-1-yl)-5-methylpyrimidine-4-carboxylic Acid] | 54 | 12400 | 
